Data on 27 molecules can be found in PMC7503225, “Repositioning Dequalinium as Potent Muscarinic Allosteric Ligand by Combining Virtual Screening Campaigns and Experimental Binding Assays” (International Journal of Molecular Sciences, 2020).

Read-outs that look alike come from different tables or passages of the source.

For data set [1] the following is noted: ref DrugBank [16]; cited from earlier work.
A further data set has as its target T1, hM5 muscarinic receptor (Homo sapiens, UniProt P08912).
T1 construct: expressed in transfected cells; host or cells: CHO cells, stably transfected; membrane fractions
T1 sequence (P08912 1-532): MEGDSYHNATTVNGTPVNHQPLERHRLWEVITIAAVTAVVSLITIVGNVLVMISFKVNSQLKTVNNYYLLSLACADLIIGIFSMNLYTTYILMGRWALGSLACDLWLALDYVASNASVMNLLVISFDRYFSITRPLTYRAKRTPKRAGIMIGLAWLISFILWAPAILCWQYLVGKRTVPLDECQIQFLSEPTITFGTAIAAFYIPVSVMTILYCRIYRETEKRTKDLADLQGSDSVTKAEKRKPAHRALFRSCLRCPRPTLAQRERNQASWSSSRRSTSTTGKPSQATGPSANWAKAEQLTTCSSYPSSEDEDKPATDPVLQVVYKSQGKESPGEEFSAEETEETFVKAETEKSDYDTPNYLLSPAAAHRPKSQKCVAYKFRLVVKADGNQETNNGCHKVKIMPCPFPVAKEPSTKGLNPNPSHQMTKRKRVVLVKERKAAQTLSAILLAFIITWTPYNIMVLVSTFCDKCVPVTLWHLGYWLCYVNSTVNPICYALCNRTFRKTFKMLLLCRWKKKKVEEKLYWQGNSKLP
Nature of the data set: Equilibrium inhibition binding with [3H]-NMS, CHO cell membranes. The procedure:
(§1) All tested compounds were purchased from Merck KGaA (Darmstadt, Germany). The radioligand binding experiments were performed with membranes from Chinese Hamster Ovary (CHO) cells stably transfected with the five cloned human muscarinic receptor subtypes (hM1-5). Membrane fractions were prepared according to the protocol, which have been previously described; membranes were stored at −80 °C until use. Nonspecific binding was defined by the radioactivity bound in the presence of 10 µM atropine.
(§2) Aliquots of membranes (25–70 µg/mL) were added and incubated for 2 h at room temperature, filtered through UniFilter GF/B plates (PerkinElmer Life and Analytical Science, Monza, Italy) using a FilterMate cell harvester (PerkinElmer Life and Analytical Science, Monza, Italy). The filters were washed several times with ice-cold MilliQ water. Then, the plates were counted in a β-counter (TopCount NXT microplate scintillation counter, PerkinElmer Life and Analytical Science, Monza, Italy).
(§3) Data points from radioligand inhibition binding curve were fitted to models using nonlinear regression equation to determine inhibitor potency (IC50) estimates, which were then converted to Ki values as appropriate.
(§4) All the results are expressed as means ± SEM obtained from 3-4 independent experiments each one performed in duplicate.

Another data set addresses T2, hM4 muscarinic receptor (Homo sapiens, UniProt P08173).
T2 construct: expressed in transfected cells; host or cells: CHO cells, stably transfected; membrane fractions
T2 sequence (P08173 1-479): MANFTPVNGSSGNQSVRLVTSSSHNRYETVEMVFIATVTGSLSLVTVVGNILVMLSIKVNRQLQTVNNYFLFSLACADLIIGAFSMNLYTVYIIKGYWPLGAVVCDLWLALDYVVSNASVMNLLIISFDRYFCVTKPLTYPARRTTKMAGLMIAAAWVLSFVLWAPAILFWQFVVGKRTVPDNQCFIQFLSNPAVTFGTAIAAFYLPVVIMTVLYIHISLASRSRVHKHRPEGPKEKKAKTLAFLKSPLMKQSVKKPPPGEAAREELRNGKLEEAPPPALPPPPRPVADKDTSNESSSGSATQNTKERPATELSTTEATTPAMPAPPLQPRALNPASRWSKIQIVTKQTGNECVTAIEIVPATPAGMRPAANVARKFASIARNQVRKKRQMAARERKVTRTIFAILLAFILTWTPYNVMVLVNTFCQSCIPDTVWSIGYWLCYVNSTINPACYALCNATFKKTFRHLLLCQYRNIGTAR
The data set is described as above. As to the method:
as §1, §2, §3, §4

For the next data set, the target named is T3, hM2 muscarinic receptor (Homo sapiens, UniProt P08172).
T3 construct: expressed in transfected cells; host or cells: CHO cells, stably transfected; membrane fractions
T3 sequence (P08172 1-466): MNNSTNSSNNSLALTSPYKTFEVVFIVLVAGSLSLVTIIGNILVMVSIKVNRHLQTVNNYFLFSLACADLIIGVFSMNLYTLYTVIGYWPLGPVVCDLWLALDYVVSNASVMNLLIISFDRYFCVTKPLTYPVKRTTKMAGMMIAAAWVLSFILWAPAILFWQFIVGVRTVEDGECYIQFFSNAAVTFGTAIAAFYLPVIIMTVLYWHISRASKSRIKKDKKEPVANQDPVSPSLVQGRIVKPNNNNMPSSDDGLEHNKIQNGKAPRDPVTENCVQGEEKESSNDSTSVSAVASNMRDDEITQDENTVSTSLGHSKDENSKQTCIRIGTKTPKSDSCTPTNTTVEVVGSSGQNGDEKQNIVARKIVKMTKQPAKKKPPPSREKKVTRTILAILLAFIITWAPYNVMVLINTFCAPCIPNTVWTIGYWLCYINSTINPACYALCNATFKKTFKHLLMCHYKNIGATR
Described as above. The note with it: [3H]-NMS 0.2 nM, mean ± SEM of 3-4 experiments, read-out: pKi hM2 (converted). As to the method: as §1, §2, §3, §4

A further data set addresses T4, hM3 muscarinic receptor (Homo sapiens, UniProt P20309).
T4 construct: expressed in transfected cells; host or cells: CHO cells, stably transfected; membrane fractions
Described as above. The note with it: [3H]-NMS 0.2 nM, mean ± SEM of 3-4 experiments, read-out: pKi hM3 (converted). As to the method:
as §1, §2, §3, §4

In the next data set the target is T5, hM1 muscarinic receptor (Homo sapiens, UniProt P11229).
T5 construct: expressed in transfected cells; host or cells: CHO cells, stably transfected; membrane fractions
T5 sequence (P11229 1-460): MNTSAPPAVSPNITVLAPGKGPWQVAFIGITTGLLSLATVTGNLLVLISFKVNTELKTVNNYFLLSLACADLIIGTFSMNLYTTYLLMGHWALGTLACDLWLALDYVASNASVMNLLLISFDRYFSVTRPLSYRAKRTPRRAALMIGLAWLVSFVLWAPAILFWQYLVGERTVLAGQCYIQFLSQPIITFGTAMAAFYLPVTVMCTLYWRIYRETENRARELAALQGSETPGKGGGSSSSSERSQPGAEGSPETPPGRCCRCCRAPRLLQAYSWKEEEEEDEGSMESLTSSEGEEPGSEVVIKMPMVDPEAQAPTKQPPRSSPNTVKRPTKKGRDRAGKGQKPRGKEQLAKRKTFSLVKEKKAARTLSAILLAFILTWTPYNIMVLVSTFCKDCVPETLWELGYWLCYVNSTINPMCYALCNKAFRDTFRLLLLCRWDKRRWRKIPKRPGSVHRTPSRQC
Described as above. The settings on record: [3H]-NMS 0.2 nM, mean ± SEM of 3-4 experiments, read-out: pKi hM1 (converted). As to the method: as §1, §2, §3, §4

In data set [2] the target is T6, [3H]-NMS-occupied muscarinic hM2 subtype (Homo sapiens, UniProt P08172).
T6 construct: expressed in transfected cells; host or cells: CHO cells, stably transfected; membrane fractions
T6 sequence (P08172 1-466): T3 sequence (P08172 1-466)
Nature of the data set: One point kinetic (off-rate) assay of [3H]-NMS dissociation. Type of data set: binding. As to the method: as §1
Off-rate assays were performed as described elsewhere to estimate the affinity of the ligands for the [^3H]-NMS-occupied receptor (log Kocc). Briefly, a high concentration of membranes (about 0.1 mg/mL) was incubated with a high concentration of [^3H]-NMS (2 nM) for 60 min at room temperature (mix membrane). Next, 100 µL aliquots were distributed into polypropylene tubes that were empty or in a final volume of 1 mL binding buffer with 1 µM atropine alone and in the presence of a range of concentrations of tested compound (1 nM–0.1 mM).
The effect on the radioligand dissociation of each tested ligand was determined at 0 min and at one time point, which was chosen to be ca 2.5 dissociation half-lives of [^3H]-NMS alone from each subtype receptors. Later (80 min for hM1, 20 min for hM2 and 70 min for hM5), the samples were filtered and counted as previously reported. Non specific binding was measured as previously reported.
as §4

The mark [3] stands for this setting: [3H]-NMS 0.2 nM, CHO membranes, mean ± SEM of 3-4 experiments, read-out: pKi hM5 (converted).
Where [4] appears, read: [3H]-NMS 0.2 nM, CHO membranes, mean ± SEM of 3-4 experiments, read-out: pKi hM4 (converted).

T4 sequence (P20309 whole entry): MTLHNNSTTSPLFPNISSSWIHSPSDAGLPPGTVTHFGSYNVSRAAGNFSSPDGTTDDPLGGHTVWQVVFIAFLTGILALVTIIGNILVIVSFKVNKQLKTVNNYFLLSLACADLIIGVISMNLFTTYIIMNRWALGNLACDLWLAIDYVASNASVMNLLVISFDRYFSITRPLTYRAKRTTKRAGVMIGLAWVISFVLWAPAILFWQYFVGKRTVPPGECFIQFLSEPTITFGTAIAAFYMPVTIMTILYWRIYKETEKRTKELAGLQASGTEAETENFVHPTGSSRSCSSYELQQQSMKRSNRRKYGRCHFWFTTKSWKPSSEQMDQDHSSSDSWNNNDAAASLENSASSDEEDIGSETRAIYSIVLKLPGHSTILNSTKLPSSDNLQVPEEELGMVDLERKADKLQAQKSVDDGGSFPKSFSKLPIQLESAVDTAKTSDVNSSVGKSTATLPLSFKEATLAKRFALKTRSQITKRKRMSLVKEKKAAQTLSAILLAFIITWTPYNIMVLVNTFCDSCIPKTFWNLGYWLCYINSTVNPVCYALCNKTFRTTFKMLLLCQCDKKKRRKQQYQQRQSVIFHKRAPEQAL

In general, logP refers to a log measure of how a compound divides between an organic and an aqueous phase. For `CC(C)(C)C(=O)OCOP(=O)(COCCn1cnc2c(N)ncnc21)OCOC(=O)C(C)(C)C` [adefovir dipivoxil], the log partition coefficient (logP) in data set [1] is 1.5. Consider `C=CCNc1nc(NCC=C)nc(N2CCN(C(c3ccc(F)cc3)c3ccc(F)cc3)CC2)n1` [almitrine], for which the lipophilicity (logP) in data set [1] is recorded as 4.1.

As for `CC[N+](CC)(CCNC(=O)C(=O)NCC[N+](CC)(CC)Cc1ccccc1Cl)Cc1ccccc1Cl` [ambenonium], the logP in data set [1] is 2.3. Consider `CC(C)COCC(CN(Cc1ccccc1)c1ccccc1)N1CCCC1` (stereo not shown) [bepridil], for which the logP in data set [1] was 5.2. Take `CCNC(=O)CCC/C=C\C[C@@H]1[C@@H](/C=C/[C@@H](O)CCc2ccccc2)[C@H](O)C[C@@H]1O` [bimatoprost]: in data set [1], the logP is given as 3.4.

Take `COc1ccccc1OCCNCC(O)COc1cccc2[nH]c3ccccc3c12` (stereo not shown) [carvedilol]: the lipophilicity (logP) in data set [1] was 3.1.

For `CC(=O)N(O)CCCCCNC(=O)CCC(=O)N(O)CCCCCNC(=O)CCC(=O)N(O)CCCCCN` [deferoxamine], the logP in data set [1] was 0.9. As for `CN(CCCCCCCCCCN(C)C(=O)Oc1cccc([N+](C)(C)C)c1)C(=O)Oc1cccc([N+](C)(C)C)c1` [demecarium], the logP in data set [1] is reported as 0.6. For `CCCCC[C@H](O)/C=C/[C@H]1[C@H](O)CC(=O)[C@@H]1C/C=C\CCCC(=O)O` [dinoprostone], in data set [1], the log partition coefficient (logP) is on record as 2.8. As for `CC[N+](CC)(CC)CCOc1cccc(OCC[N+](CC)(CC)CC)c1OCC[N+](CC)(CC)CC` [gallamine], the Ki is 2.19 µM on hM5 muscarinic receptor (setting [3]) and 0.794 µM on hM4 muscarinic receptor (setting [4]). `C[N+](C)(CCCCCC[N+](C)(C)C1c2ccccc2-c2ccccc21)C1c2ccccc2-c2ccccc21` [hexafluronium]: in data set [1], the logP is listed as 1.8.

On to `CC#CCC(C)[C@H](O)/C=C/[C@@H]1[C@H]2C/C(=C/CCCC(=O)O)C[C@H]2C[C@H]1O` (stereo partly shown) [iloprost], for which the log partition coefficient (logP) in data set [1] is 4.2. `CC(=O)N1CCN(c2ccc(OCC3COC(Cn4ccnc4)(c4ccc(Cl)cc4Cl)O3)cc2)CC1` (stereo not shown) [ketoconazole]: the values for the Ki on hM5 muscarinic receptor (setting [3]) and at hM4 muscarinic receptor (setting [4]) were 7.94 µM and 4.57 µM, respectively. Turning to `CS(=O)(=O)CCNCc1ccc(-c2ccc3ncnc(Nc4ccc(OCc5cccc(F)c5)c(Cl)c4)c3c2)o1` [lapatinib], the logP in data set [1] is given as 5.2. `CC(C)OC(=O)CCC/C=C\C[C@@H]1[C@@H](CC[C@@H](O)CCc2ccccc2)[C@H](O)C[C@@H]1O` [latanoprost]: the log partition coefficient (logP) in data set [1] is 4.2. With `C/C(=C\C(=O)OCCCCCCCCC(=O)O)C[C@@H]1OC[C@H](C[C@@H]2O[C@H]2[C@@H](C)[C@H](C)O)[C@@H](O)[C@H]1O` [mupirocin], the lipophilicity (logP) in data set [1] is listed as 2.2. On to `CCCCCCCCCCC[C@@H](C[C@@H]1OC(=O)[C@H]1CCCCCC)OC(=O)[C@H](CC(C)C)NC=O` [orlistat], for which the Ki on hM5 muscarinic receptor (setting [3]), at hM4 muscarinic receptor (setting [4]), on hM2 muscarinic receptor, at hM3 muscarinic receptor and on hM1 muscarinic receptor was above 100 µM throughout. The “Log Kocc hM2” value in data set [2] (Table 4, affinity estimate at [3H]-NMS-occupied receptor, one time point 20 min, mean ± SEM) is “completely inactive”. Moreover, the Kd in data set [2] (read-out: Log Kocc hM2 (converted)) is above 1000 µM. In addition, in data set [1], the lipophilicity (logP) was 7.5. Consider `C[n+]1ccc(-c2cc[n+](C)cc2)cc1` [paraquat], for which the Ki is 14.8 µM on hM5 muscarinic receptor, above 100 µM on hM4 muscarinic receptor and 23.4 µM at hM2 muscarinic receptor. As for `CC1=C(C/C=C(\C)CCC[C@H](C)CCC[C@H](C)CCCC(C)C)C(=O)c2ccccc2C1=O` [phytonadione], in data set [1], the logP is 9.3. Regarding `O=c1[nH]c2ccccc2n1C1CCN(CCCC(c2ccc(F)cc2)c2ccc(F)cc2)CC1` [pimozide], in data set [1], the logP is on record as 6.3. As to `OCc1cc(C(O)CNCCCCCCOCCCCc2ccccc2)ccc1O` (stereo not shown) [salmeterol], the Ki on hM5 muscarinic receptor (setting [3]) is 12.6 µM; at hM4 muscarinic receptor (setting [4]), 9.77 µM; on hM3 muscarinic receptor, 12 µM; at hM1 muscarinic receptor, 3.24 µM. In addition, the log partition coefficient (logP) in data set [1] is reported as 3.8.

For the molecule `C[C@H](Cc1cc2c(c(C(N)=O)c1)N(CCCO)CC2)NCCOc1ccccc1OCC(F)(F)F` [silodosin], the log partition coefficient (logP) in data set [1] is 3.0. As to `CC(C)N1CCN(c2ccc(OCC3COC(Cn4cncn4)(c4ccc(Cl)cc4Cl)O3)cc2)CC1` (stereo not shown) [terconazole], in data set [1], the log partition coefficient (logP) is listed as 4.5. On to `CC(C)(C)c1ccc(C(O)CCCN2CCC(C(O)(c3ccccc3)c3ccccc3)CC2)cc1` (stereo not shown) [terfenadine], for which, on hM4 muscarinic receptor (setting [4]), the Ki is 11 µM. For the same molecule, the logP in data set [1] is 5.9. `CC(C)OC(=O)CCC/C=C\C[C@@H]1[C@@H](/C=C/[C@@H](O)COc2cccc(C(F)(F)F)c2)[C@H](O)C[C@@H]1O` [travoprost]: in data set [1], the logP is 4.6. Take `N#Cc1ccc2[nH]cc(CCCCN3CCN(c4ccc5oc(C(N)=O)cc5c4)CC3)c2c1` [vilazodone]: the logP in data set [1] was 4.2. Consider `CCOC(=O)CN[C@@H](C(=O)N1CC[C@H]1C(=O)NCc1ccc(/C(N)=N\O)cc1)C1CCCCC1` [ximelagatran], for which the logP in data set [1] is 1.4.
